Consider eight compounds from paper PMC2843921 (ACS chemical neuroscience, 2010).

Experiment [1] concerns the target T1, human μ opioid receptor (Homo sapiens, UniProt P35372). Description: Stimulation of [35S]GTPγS binding, μ. The experiment is classed as biochemical. The settings on record: for Emax: read-out: Agonism μ Emax (%). (GTPγS is a poorly hydrolysed GTP analogue; its binding reports G protein activation.)
The target of experiment [2] is T2, human δ opioid receptor (Homo sapiens, UniProt P41143). Description: Stimulation of [35S]GTPγS binding, δ. The settings on record: for Emax: read-out: Agonism δ Emax (%). The format is biochemical.
The target in experiment [3] is T1, human μ opioid receptor. The experiment is described as follows: Inhibition of DAMGO-stimulated [35S]GTPγS binding, μ. The format is biochemical. The settings on record: for Antagonism μ Imax (%): in presence of 200 nM DAMGO, NI = No inhibition.
The target in experiment [4] is T2, human δ opioid receptor. Description: Inhibition of SNC 80-stimulated [35S]GTPγS binding, δ. The settings on record: in presence of 10 nM SNC 80; NI = No inhibition. The format is biochemical.
In experiment [5] the test system is GPI. The settings on record: read-out: GPI EC50; cited from earlier work.
Experiment [6] has as its system MVD. The settings on record: read-out: MVD EC50; cited from earlier work.

Where a name gives a salt, the structure may show the parent alone. Non-standard residues stand in square brackets, D forms with d. Residues, ends and D or L forms follow the SMILES beside them. *: point of attachment. Dmt = Cc1cc(O)cc(C)c1C[C@H](N)C(=O)O; dTic = O=C(O)[C@H]1Cc2ccccc2CN1; NHBn = c1ccc(CN*)cc1

T1 sequence (P35372 whole entry): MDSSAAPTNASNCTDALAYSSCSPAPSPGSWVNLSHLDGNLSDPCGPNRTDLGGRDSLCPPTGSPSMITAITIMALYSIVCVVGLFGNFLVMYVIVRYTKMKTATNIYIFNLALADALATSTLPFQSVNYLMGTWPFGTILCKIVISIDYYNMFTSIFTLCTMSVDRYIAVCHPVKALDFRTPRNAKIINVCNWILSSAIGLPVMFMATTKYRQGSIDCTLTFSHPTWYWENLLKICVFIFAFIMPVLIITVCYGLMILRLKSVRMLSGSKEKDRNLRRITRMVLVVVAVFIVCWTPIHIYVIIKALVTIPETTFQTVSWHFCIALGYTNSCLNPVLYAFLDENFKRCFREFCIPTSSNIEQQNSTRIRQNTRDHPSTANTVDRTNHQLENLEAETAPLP
T2 sequence (P41143 whole entry): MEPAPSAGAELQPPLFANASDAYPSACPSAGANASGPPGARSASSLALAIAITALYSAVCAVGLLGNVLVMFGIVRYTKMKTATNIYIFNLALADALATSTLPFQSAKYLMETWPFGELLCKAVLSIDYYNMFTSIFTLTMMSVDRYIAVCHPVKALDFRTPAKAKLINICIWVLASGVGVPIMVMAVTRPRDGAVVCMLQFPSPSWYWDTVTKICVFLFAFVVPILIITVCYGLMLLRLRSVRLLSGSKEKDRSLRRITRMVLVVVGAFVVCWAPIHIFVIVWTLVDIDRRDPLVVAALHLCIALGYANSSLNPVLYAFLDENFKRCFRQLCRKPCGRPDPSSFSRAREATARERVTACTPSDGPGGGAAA

A word on the EC50: it is the concentration that produces a half-maximal response. Usually Emax stands for the maximal effect, on the per cent scale that the assay sets. Turning to `Cc1cc(O)cc(C)c1C[C@H](N)C(=O)N1Cc2ccccc2C[C@@H]1C(=O)NCC(=O)NCc1ccccc1` [Compound 2, TFA·H-Dmt-D-Tic-Gly-NH-Bzl] (H-[Dmt]-[dTic]-Gly-NHBn), in experiment [1], a half-maximal effect (EC50) was put at 0.9 ± 0.032 nM and the Emax was found to be 92 ± 4%. For the same compound, in experiment [2], a half-maximal effect (EC50) was put at 2.8 ± 0.6 nM and the Emax was 44 ± 6.1%.

`Cc1cc(O)cc(C)c1C[C@H](N)C(=O)N1Cc2ccccc2C[C@H]1C(=O)NCC(=O)NCc1ccc(Cl)cc1` [Compound 3, TFA·H-Dmt-Tic-Gly-NH-Bzl(pCl)]: a half-maximal response in experiment [1] (EC50) required 33 ± 2.9 nM. Moreover, the Emax turned out to be 52 ± 5.5% in experiment [1] and 4.5 ± 0.85% in experiment [2]. Further, the “Antagonism μ Imax (%)” value in experiment [3] worked out at 43±3.3%. In experiment [4], the “Antagonism δ Imax (%)” value was found to be 93±2.2%.

Broadly, the inhibition is the share of the control response that was lost under treatment. Consider `Cc1ccc(CNC(=O)CNC(=O)[C@@H]2Cc3ccccc3CN2C(=O)[C@@H](N)Cc2c(C)cc(O)cc2C)cc1` [Compound 4, TFA·H-Dmt-Tic-Gly-NH-Bzl(pMe)], for which, in experiment [1], the EC50 was 63 ± 3.5 nM and the Emax stood at 34 ± 6.4%. For the same compound, in experiment [2], the Emax turned out to be 0.4 ± 1.43%. For the same compound, the inhibition at 25 µM in experiment [3] (read-out: Antagonism μ inhibition of DAMGO-stimulated [35S]GTPγS binding (%)) is 65 ± 1.1%. Besides, the “Antagonism δ Imax (%)” value in experiment [4] came out at 86±5.0%.

`Cc1cc(O)cc(C)c1C[C@H](N)C(=O)N1Cc2ccccc2C[C@H]1C(=O)NCC(=O)NCc1ccc([N+](=O)[O-])cc1` [Compound 5, TFA·H-Dmt-Tic-Gly-NH-Bzl(pNO2)]: in experiment [1], a half-maximal response (EC50) required 61 ± 15 nM and the Emax came out at 16 ± 2.5%. For the same compound, the Emax in experiment [2] came to 3.1 ± 0.43%. In experiment [3], the “Antagonism μ Imax (%)” value is listed as 74±6.9%. Also, the “Antagonism δ Imax (%)” value in experiment [4] worked out at 79±3.8%.

With `Cc1cc(O)cc(C)c1C[C@H](N)C(=O)N1Cc2ccccc2C[C@H]1C(=O)NCC(=O)NCc1ccc(N)cc1` [Compound 6, 2TFA·H-Dmt-Tic-Gly-NH-Bzl(pNH2)], the Emax in experiment [2] amounted to 13 ± 1%. For the same compound, the “Antagonism δ Imax (%)” value in experiment [4] turned out to be 78±2.7%.

As for `Cc1cc(O)cc(C)c1C[C@H](N)C(=O)N1Cc2ccccc2C[C@H]1C(=O)NCC(=O)NC(c1ccccc1)c1ccccc1` [Compound 7, TFA·H-Dmt-Tic-Gly-NH-Benzhydryl], in experiment [1], it took 4.8 ± 0.16 nM to reach a half-maximal effect (EC50) and the Emax was 45 ± 1.2%. Moreover, in experiment [2], the Emax is -1.9 ± 0.17%. For the same compound, the “Antagonism δ Imax (%)” value in experiment [4] was found to be 100±7.4%.

For `Cc1cc(O)cc(C)c1C[C@H](N)C(=O)N1Cc2ccccc2C[C@H]1C(=O)NCC(=O)N1CCc2ccccc2C1` [Compound 8, TFA·H-Dmt-Tic-Gly-1,2,3,4-tetrahydroisoquinoline], the Emax was 43 ± 6.6% in experiment [1] and -1.4 ± 0.14% in experiment [2]. For the same compound, in experiment [4], the “Antagonism δ Imax (%)” value stood at 99±3.3%.

Turning to H-Dmt-Tic-Gly-Ph, the results for the EC50 in experiment [5] and in experiment [6] were 2.57 nM and 3.02 nM, respectively.
